Reference: patent US20240197800A1, “Aristotelia chilensis EXTRACTS FOR TREATING FUNGAL INFECTIONS” (Phytonet Doo Beograd-rakovica, priority 2021, published 2024)

Key:
Candida albicans SC5314 = test: zebrafish embryo hindbrain infection model, inhibition of candida filamentation in vivo; parameters: species or system Candida albicans (host: zebrafish embryo)
Experimental: The model of the brain infection (hindbrain) of the zebrafish embryo with Candida albicans, described in the literature, is an animal model of the infection system which due to the optical transparency of the embryo body provides the ability to examine and monitor the effect of applied therapeutics on replication, filamentation and fungi dissemination through the body of the zebrafish embryo as a host. The embryos at the developmental stage of 32-34 hpf were injected into the brain through an optic vesicle with 50-75 Candida albicans SC5314 cells, previously labeled with green fluorescent dye. Candida inoculum was prepared in 5% polyvinylpyrrolidone (PVP) solution. Two hours after the microinjection of candida, the infected embryos were treated with Maqui berry extract at a concentration of 0.0625 mg/mL, 0.125 mg/mL and 0.25 mg/mL, as well as nystatin at a concentration of 1 μg/mL (½MIK) and 0.5 μg/mL (¼MIK). Beside individual treatments, the infected embryos were exposed to a combined treatment (nystatin and extract together), in combinations of all mentioned doses. The embryos injected with only 5% PVP represented the control group. After the applied treatments, the zebrafish embryos were reared for the next 4 days at a temperature of 31° C. and monitored daily for survival as well as filamentation and dissemination of candida using fluorescence microscopy.

[1] = system: candida, three clinical isolates; test: inhibition of candida filamentation in vitro, checkerboard assay with nystatin in RPMI medium; type: cell-based, Candida albicans
Experimental: The inhibitory effect of Maqui berry extract and nystatin, one of the most commonly applied topical antifungal drugs, on candida filamentation was investigated in vitro in three clinical isolates in RPMI medium in a checkerboard assay. The extract was tested in a concentration range of 0.125; 0.25 and 0.5 mg/mL (31.25; 62.5 and 125 μg/mL delphinidin, respectively 43.75; 87.5 and 175 μg/mL total anthocyanins), and nystatin in the concentration range 2 μg/mL (MIK), 1 μg/mL (½MIK) and 0.5 μg/mL (¼MIK).

[2] = nystatin alone, MIK dose (2 μg/mL)

SMILES: C[C@@H]1[C@H](O)[C@@H](C)/C=C/C=C/CC/C=C/C=C/C=C/C=C/C(O[C@H]2O[C@H](C)[C@@H](O)[C@H](N)[C@@H]2O)CC2O[C@](O)(CC(O)C(O)CCC(O)CC(O)CC(O)CC(=O)O[C@H]1C)CC(O)C2C(=O)O (stereo partly drawn) [nystatin]
- filamentation in vivo (Candida albicans SC5314; both nystatin concentrations (0.5 and 1 μg/mL)): filamentation was present
- infection (candidiasis) compared to untreated embryos (Candida albicans SC5314; nystatin 0.5 μg/mL (¼MIK) and 1 μg/mL (½MIK)): significantly reduced
- MIK ([1]; clinical isolates, RPMI medium): 2 µg/mL
- filamentation [1, 2]: no filamentation
- growth of isolates [1, 2]: reduced growth
- growth and filamentation ([1]; nystatin alone, ½MIK (1 μg/mL) and ¼MIK (0.5 μg/mL) doses): grew and filamented
